According to article PMC11842588, “A first-in-class selective inhibitor of ERK1/2 and ERK5 overcomes drug resistance with a single-molecule strategy” (Signal Transduction and Targeted Therapy, 2025):

Columns and labels:
Experiment in all cases: Kinase profiling
Type in all cases: biochemical
[1] = molecular target: T1, A-Raf(h) (Homo sapiens, UniProt P10398)
T1 construct: purchased Eurofins Cerep SA (KinaseProfiler)
Description: (§1) 380 kinases inhibitory activities of SKLB-D18 were conducted by Eurofins Cerep SA. The result was illustrated by kinase tree (http://www.kinhub.org/kinmap/).

[2] = molecular target: T2, ALK6(h) (Homo sapiens, UniProt O00238)
T2 construct: purchased Eurofins Cerep SA (KinaseProfiler)
Description: as §1

[3] = molecular target: T3, Aurora-A(h) (Homo sapiens, UniProt O14965)
T3 construct: purchased Eurofins Cerep SA (KinaseProfiler)
Description: as §1

[4] = molecular target: T4, B-Raf(h) (Homo sapiens, UniProt P15056)
T4 construct: purchased Eurofins Cerep SA (KinaseProfiler)
Description: as §1

[5] = molecular target: T5, CDKL3(h) (Homo sapiens, UniProt Q8IVW4)
T5 construct: purchased Eurofins Cerep SA (KinaseProfiler)
Description: as §1

[6] = molecular target: T6, CHK1(h) (Homo sapiens, UniProt O14757)
T6 construct: purchased Eurofins Cerep SA (KinaseProfiler)
Description: as §1

[7] = molecular target: T7, CK1γ2(h) (Homo sapiens, UniProt P78368)
T7 construct: purchased Eurofins Cerep SA (KinaseProfiler)
Description: as §1

[8] = molecular target: T8, COT(h) (Homo sapiens, UniProt P41279)
T8 construct: purchased Eurofins Cerep SA (KinaseProfiler)
Description: as §1

[9] = molecular target: T9, CaMKIIδ(h) (Homo sapiens, UniProt Q13557)
T9 construct: purchased Eurofins Cerep SA (KinaseProfiler)
Description: as §1

[10] = molecular target: T10, CaMKIβ(h) (Homo sapiens, UniProt Q6P2M8)
T10 construct: purchased Eurofins Cerep SA (KinaseProfiler)
Description: as §1

[11] = molecular target: T11, CaMKK1(h) (Homo sapiens, UniProt Q8N5S9)
T11 construct: purchased Eurofins Cerep SA (KinaseProfiler)
Description: as §1

[12] = molecular target: T12, Cdc7/cyclinB1(h) (Homo sapiens, UniProt O00311)
T12 construct: purchased Eurofins Cerep SA (KinaseProfiler)
Description: as §1

[13] = molecular target: T13, DNA-PK(h) (Homo sapiens, UniProt P78527)
T13 construct: purchased Eurofins Cerep SA (KinaseProfiler)
Description: as §1

[14] = molecular target: T14, EphA7(h) (Homo sapiens, UniProt Q15375)
T14 construct: purchased Eurofins Cerep SA (KinaseProfiler)
Description: as §1

[15] = molecular target: T15, Flt4(h) (Homo sapiens, UniProt P35916)
T15 construct: purchased Eurofins Cerep SA (KinaseProfiler)
Description: as §1

[16] = molecular target: T16, GCN2(h) (Homo sapiens, UniProt Q9P2K8)
T16 construct: purchased Eurofins Cerep SA (KinaseProfiler)
Description: as §1

[17] = molecular target: T17, GRK5(h) (Homo sapiens, UniProt P34947)
T17 construct: purchased Eurofins Cerep SA (KinaseProfiler)
Description: as §1

[18] = molecular target: T18, Haspin(h) (Homo sapiens, UniProt Q8TF76)
T18 construct: purchased Eurofins Cerep SA (KinaseProfiler)
Description: as §1

[19] = molecular target: T19, KDR(h) (Homo sapiens, UniProt P35968)
T19 construct: purchased Eurofins Cerep SA (KinaseProfiler)
Description: as §1

[20] = molecular target: T20, Lck(h) activated (Homo sapiens, UniProt P06239)
T20 construct: purchased Eurofins Cerep SA (KinaseProfiler)
Description: as §1

[21] = molecular target: T21, MARK1(h) (Homo sapiens, UniProt Q9P0L2)
T21 construct: purchased Eurofins Cerep SA (KinaseProfiler)
Description: as §1

[22] = molecular target: T22, MARK4(h) (Homo sapiens, UniProt Q96L34)
T22 construct: purchased Eurofins Cerep SA (KinaseProfiler)
Description: as §1

[23] = molecular target: T23, MINK(h) (Homo sapiens, UniProt Q8N4C8)
T23 construct: purchased Eurofins Cerep SA (KinaseProfiler)
Description: as §1

[24] = molecular target: T24, MKK6(h) (Homo sapiens, UniProt P52564)
T24 construct: purchased Eurofins Cerep SA (KinaseProfiler)
Description: as §1

[25] = molecular target: T25, MRCKβ(h) (Homo sapiens, UniProt Q9Y5S2)
T25 construct: purchased Eurofins Cerep SA (KinaseProfiler)
Description: as §1

[26] = molecular target: T26, MST2(h) (Homo sapiens, UniProt Q13188)
T26 construct: purchased Eurofins Cerep SA (KinaseProfiler)
Description: as §1

[27] = molecular target: T27, NDR1(h) (Homo sapiens, UniProt Q15208)
T27 construct: purchased Eurofins Cerep SA (KinaseProfiler)
Description: as §1

[28] = molecular target: T28, NEK11(h) (Homo sapiens, UniProt Q8NG66)
T28 construct: purchased Eurofins Cerep SA (KinaseProfiler)
Description: as §1

[29] = molecular target: T29, NEK2(h) (Homo sapiens, UniProt P51955)
T29 construct: purchased Eurofins Cerep SA (KinaseProfiler)
Description: as §1

[30] = molecular target: T30, NEK6(h) (Homo sapiens, UniProt Q9HC98)
T30 construct: purchased Eurofins Cerep SA (KinaseProfiler)
Description: as §1

[31] = molecular target: T31, NIM1(h) (Homo sapiens, UniProt Q8IY84)
T31 construct: purchased Eurofins Cerep SA (KinaseProfiler)
Description: as §1

[32] = molecular target: T32, PDGFRα(h) (Homo sapiens, UniProt P16234)
T32 construct: purchased Eurofins Cerep SA (KinaseProfiler)
Description: as §1

[33] = molecular target: T33, PKBβ(h) (Homo sapiens, UniProt P31751)
T33 construct: purchased Eurofins Cerep SA (KinaseProfiler)
Description: as §1

[34] = molecular target: T34, PKCδ(h) (Homo sapiens, UniProt Q05655)
T34 construct: purchased Eurofins Cerep SA (KinaseProfiler)
Description: as §1

[35] = molecular target: T35, PrKX(h) (Homo sapiens, UniProt P51817)
T35 construct: purchased Eurofins Cerep SA (KinaseProfiler)
Description: as §1

[36] = molecular target: T36, Rsk3(h) (Homo sapiens, UniProt Q15349)
T36 construct: purchased Eurofins Cerep SA (KinaseProfiler)
Description: as §1

[37] = molecular target: T37, SIK3(h) (Homo sapiens, UniProt Q9Y2K2)
T37 construct: purchased Eurofins Cerep SA (KinaseProfiler)
Description: as §1

[38] = molecular target: T38, TRB2(h) (Homo sapiens, UniProt Q92519)
T38 construct: purchased Eurofins Cerep SA (KinaseProfiler)
Description: as §1

[39] = molecular target: T39, WNK2(h) (Homo sapiens, UniProt Q9Y3S1)
T39 construct: purchased Eurofins Cerep SA (KinaseProfiler)
Description: as §1

[40] = molecular target: T40, WNK3(h) (Homo sapiens, UniProt Q9BYP7)
T40 construct: purchased Eurofins Cerep SA (KinaseProfiler)
Description: as §1

[41] = molecular target: T41, Wee1B(h) (Homo sapiens, UniProt P0C1S8)
T41 construct: purchased Eurofins Cerep SA (KinaseProfiler)
Description: as §1

T31 sequence (Q8IY84 whole entry): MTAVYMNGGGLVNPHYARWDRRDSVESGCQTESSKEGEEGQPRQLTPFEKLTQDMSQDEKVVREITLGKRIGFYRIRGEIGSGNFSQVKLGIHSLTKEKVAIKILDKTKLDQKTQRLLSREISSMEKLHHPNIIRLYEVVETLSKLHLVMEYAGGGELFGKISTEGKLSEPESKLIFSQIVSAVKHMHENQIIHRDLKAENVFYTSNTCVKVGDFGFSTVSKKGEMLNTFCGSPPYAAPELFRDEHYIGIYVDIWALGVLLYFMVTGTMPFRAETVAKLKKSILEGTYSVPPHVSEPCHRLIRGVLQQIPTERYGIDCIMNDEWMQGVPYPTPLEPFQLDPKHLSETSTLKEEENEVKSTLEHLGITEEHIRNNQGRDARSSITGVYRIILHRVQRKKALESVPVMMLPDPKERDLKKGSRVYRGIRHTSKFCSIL
T10 sequence (Q6P2M8 whole entry): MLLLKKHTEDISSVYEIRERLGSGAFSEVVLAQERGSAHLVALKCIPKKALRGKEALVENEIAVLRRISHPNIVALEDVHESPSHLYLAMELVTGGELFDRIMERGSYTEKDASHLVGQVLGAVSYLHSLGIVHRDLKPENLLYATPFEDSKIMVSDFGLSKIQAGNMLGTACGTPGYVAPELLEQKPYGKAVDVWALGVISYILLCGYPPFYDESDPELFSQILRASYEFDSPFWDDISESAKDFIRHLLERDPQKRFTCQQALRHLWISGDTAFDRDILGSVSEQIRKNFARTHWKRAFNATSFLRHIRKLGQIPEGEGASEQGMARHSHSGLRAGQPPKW
T29 sequence (P51955 whole entry): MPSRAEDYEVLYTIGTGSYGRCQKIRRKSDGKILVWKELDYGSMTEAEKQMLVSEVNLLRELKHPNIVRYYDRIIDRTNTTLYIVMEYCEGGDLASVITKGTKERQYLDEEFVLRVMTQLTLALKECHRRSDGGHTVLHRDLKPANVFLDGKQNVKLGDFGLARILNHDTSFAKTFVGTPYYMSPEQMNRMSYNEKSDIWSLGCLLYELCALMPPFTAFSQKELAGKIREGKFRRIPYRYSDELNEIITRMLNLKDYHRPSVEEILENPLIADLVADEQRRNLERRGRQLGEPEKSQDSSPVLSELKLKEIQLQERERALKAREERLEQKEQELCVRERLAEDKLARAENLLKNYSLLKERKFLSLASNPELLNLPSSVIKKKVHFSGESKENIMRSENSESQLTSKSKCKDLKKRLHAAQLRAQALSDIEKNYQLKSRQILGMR
T24 sequence (P52564 whole entry): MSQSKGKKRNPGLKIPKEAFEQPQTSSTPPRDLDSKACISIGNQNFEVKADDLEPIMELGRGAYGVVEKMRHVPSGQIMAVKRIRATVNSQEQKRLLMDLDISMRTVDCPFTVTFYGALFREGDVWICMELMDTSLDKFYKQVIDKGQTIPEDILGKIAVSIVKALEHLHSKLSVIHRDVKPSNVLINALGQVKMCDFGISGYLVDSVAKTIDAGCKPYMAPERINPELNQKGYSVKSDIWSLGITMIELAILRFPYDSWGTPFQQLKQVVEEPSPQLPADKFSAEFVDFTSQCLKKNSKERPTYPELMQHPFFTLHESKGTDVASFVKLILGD
T8 sequence (P41279 whole entry): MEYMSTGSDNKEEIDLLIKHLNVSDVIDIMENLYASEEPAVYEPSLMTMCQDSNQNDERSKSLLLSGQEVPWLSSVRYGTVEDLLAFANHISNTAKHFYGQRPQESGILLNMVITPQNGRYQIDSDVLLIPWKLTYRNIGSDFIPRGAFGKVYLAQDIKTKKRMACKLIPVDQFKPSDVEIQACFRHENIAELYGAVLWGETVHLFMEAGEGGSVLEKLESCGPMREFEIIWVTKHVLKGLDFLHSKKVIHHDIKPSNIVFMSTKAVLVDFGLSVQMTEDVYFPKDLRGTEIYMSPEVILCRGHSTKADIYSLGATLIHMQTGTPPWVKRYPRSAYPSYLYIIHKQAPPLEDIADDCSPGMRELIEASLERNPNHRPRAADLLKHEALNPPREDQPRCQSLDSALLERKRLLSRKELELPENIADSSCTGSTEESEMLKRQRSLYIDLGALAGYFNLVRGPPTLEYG
T15 sequence (P35916 25-1363): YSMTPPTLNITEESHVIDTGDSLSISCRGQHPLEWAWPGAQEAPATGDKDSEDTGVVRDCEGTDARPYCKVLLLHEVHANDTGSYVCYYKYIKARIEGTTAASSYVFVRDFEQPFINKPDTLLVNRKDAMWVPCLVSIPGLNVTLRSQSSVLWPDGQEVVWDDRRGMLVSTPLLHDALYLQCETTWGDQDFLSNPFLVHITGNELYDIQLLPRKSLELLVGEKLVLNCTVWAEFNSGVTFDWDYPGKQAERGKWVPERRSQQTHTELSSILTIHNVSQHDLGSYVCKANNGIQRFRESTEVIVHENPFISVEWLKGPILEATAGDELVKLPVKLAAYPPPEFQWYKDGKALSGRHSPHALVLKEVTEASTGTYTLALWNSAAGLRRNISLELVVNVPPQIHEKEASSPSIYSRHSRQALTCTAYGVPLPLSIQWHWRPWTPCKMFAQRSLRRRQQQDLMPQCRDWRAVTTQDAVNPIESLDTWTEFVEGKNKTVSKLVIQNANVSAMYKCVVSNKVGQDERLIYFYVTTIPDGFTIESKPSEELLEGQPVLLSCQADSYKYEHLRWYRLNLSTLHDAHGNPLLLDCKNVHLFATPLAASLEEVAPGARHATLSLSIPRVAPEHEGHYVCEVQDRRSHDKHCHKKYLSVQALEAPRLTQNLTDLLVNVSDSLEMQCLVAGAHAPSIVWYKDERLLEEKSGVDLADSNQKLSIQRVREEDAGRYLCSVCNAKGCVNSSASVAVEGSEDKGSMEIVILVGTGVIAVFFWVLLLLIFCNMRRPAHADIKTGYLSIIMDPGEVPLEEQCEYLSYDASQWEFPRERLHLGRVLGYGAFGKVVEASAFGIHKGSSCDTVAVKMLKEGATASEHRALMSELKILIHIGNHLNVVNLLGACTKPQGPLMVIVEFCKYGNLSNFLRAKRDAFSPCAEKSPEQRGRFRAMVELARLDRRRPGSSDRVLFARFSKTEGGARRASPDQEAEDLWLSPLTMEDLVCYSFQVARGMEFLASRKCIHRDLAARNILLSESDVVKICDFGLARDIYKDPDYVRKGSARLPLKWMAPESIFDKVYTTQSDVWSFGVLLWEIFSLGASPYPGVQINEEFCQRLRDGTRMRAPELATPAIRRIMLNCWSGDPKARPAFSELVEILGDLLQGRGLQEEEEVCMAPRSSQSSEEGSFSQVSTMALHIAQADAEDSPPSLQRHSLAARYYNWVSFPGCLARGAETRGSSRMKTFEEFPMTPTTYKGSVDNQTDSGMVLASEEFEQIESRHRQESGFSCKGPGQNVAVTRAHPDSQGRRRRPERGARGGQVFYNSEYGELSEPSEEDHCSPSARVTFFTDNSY
T16 sequence (Q9P2K8 whole entry): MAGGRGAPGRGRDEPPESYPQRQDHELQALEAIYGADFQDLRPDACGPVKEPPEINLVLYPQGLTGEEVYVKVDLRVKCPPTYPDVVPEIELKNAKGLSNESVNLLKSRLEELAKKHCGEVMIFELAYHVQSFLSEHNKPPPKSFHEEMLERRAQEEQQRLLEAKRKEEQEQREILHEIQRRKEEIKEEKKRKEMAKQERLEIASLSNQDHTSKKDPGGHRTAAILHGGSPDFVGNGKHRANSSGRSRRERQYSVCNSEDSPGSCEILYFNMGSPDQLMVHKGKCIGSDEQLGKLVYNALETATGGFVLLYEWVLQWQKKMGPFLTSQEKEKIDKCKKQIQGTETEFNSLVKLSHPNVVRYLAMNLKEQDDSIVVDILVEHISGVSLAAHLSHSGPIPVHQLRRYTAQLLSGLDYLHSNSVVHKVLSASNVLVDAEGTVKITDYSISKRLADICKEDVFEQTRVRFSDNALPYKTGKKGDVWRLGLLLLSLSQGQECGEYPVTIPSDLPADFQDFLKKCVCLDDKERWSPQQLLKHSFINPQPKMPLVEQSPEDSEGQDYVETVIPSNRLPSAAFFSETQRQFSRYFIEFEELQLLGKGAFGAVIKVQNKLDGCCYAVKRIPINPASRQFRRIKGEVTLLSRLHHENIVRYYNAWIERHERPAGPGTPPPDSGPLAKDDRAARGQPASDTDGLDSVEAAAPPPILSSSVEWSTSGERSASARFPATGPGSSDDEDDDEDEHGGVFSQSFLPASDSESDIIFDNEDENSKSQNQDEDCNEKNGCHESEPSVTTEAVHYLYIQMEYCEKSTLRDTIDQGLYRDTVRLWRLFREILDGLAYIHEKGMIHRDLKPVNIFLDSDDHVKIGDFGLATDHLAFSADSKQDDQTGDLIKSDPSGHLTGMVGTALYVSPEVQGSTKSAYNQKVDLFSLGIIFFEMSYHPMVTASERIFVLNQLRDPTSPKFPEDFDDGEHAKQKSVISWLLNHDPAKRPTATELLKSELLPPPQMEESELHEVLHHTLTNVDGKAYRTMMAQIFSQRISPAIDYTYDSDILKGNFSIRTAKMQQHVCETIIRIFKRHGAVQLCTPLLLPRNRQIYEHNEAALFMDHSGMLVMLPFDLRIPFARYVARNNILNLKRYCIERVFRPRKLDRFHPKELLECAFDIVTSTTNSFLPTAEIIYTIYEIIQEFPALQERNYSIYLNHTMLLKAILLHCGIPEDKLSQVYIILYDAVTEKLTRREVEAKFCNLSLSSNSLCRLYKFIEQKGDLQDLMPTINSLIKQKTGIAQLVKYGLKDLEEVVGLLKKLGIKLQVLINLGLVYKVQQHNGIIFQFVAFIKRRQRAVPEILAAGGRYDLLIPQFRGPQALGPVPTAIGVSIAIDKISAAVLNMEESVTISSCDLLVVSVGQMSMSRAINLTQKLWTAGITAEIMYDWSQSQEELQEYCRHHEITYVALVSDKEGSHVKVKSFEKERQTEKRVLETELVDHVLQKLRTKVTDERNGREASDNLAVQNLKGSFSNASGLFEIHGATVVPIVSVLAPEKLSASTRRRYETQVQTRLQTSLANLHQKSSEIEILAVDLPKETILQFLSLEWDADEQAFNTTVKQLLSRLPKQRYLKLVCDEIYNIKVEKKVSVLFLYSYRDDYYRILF

CN(C)Cc1cccc(Nc2ncc(Cl)c(-c3csc(C(=O)NN4CCOCC4)c3)n2)c1 [SKLB-D18, 4-(5-chloro-2-((3-((dimethylamino)methyl)phenyl)amino)pyrimidin-4-yl)-N-morpholinothiophene-2-carboxamide]
inhibition at 1 µM [1]: 63% | inhibition at 1 µM [2]: 10% | inhibition at 1 µM [3]: 51% | inhibition at 1 µM [4]: 59% | inhibition at 1 µM [5]: 54% | inhibition at 1 µM [6]: 36% | inhibition at 1 µM [7]: 18% | inhibition at 1 µM [8]: -5% | inhibition at 1 µM [9]: 47% | inhibition at 1 µM [10]: 1% | inhibition at 1 µM [11]: 12% | inhibition at 1 µM [12]: 30% | inhibition at 1 µM [13]: 10% | inhibition at 1 µM [14]: 38% | inhibition at 1 µM [15]: 63% | inhibition at 1 µM [16]: 69% | inhibition at 1 µM [17]: -1% | inhibition at 1 µM [18]: 12% | inhibition at 1 µM [19]: 66% | inhibition at 1 µM [20]: 68% | inhibition at 1 µM [21]: 64% | inhibition at 1 µM [22]: 64% | inhibition at 1 µM [23]: 22% | inhibition at 1 µM [24]: 5% | inhibition at 1 µM [25]: 15% | inhibition at 1 µM [26]: 40% | inhibition at 1 µM [27]: 66% | inhibition at 1 µM [28]: -4% | inhibition at 1 µM [29]: 42% | inhibition at 1 µM [30]: 0% | inhibition at 1 µM [31]: 50% | inhibition at 1 µM [32]: 37% | inhibition at 1 µM [33]: -12% | inhibition at 1 µM [34]: 23% | inhibition at 1 µM [35]: 43% | inhibition at 1 µM [36]: 66% | inhibition at 1 µM [37]: 22% | inhibition at 1 µM [38]: 71% | inhibition at 1 µM [39]: 24% | inhibition at 1 µM [40]: 9% | inhibition at 1 µM [41]: 49%
